Test results as given in patent US4191780A, “Bromhexine derivatives and process for making same” (priority 1978, dated 1980).

What was measured:
[1] = Long-term toxicity in rats (16 weeks): mean body weight; type: in vivo
Text: Effect of daily oral administration of various doses of
IFT 1026 and Bromhexine on mean body weight of rats.

noci-ceptive stimuli = experiment: Study of analgesic action on mice (both tests); type: in vivo; conditions: 300 mg/kg oral
Description: (§1) Two test methods are used for establishing the action of Bromhexine and IFT 1026 on noci-ceptive stimuli in mice.
(§2) (a) Pain induced by a chemical stimulus according to the method of Siegmund (Siegmund E., Cadmier, R., and Lu, G. Proc. Soc. exp. Biol. N.Y. 95, 729--1957). The mice distributed at random into groups of 10 animals, are deprived of solid food for the 18-hour period prior to the test. […] Thirty minutes after treatment the mice are injected i.p. with 0.1 ml/10 g of a 1.5% acetic acid solution. The writhing is recorded for a 20 min. period following this i.p. injection.
(§3) (b) Pain induced by a physical stimulation according to the hot-plate test technique by Eddy and Leimbach (Eddy, N. B. and Leimbach, O., J. Pharmacol. exp.Ther. 107, 383--1953). The temperature of the plate was kept at 57° C. Groups of 12 mice are treated as described under (a) above. The reaction times are measured 15 min. before treatment (Ro) and 4 times after the administration (every 15 min). Only the maximal response is taken into account (Rmax).

[2] = test system: Cough elicited by 15% citric acid spray; experiment: Antitussive activity in mice, citric acid spray cough; type: in vivo; conditions: Mus musculus, oral, 1 hour after administration, confidence limits P = 0.05
Description: (§4) (6) Antitussive effect in Guinea-pigs and mice
(§5) Cough is elicited by 15% citric acid spray in both species, according to the method by Harsany et al. (Boll. Chim. Farm. 112, 691, 1973). The effect was tested 1 hour after oral administration and 30 min. after intraperitoneal application of the antitussive agents on mice and Guinea-pigs respectively.
(§6) ED50 values of the drugs are computed by the method of Litchfield and Wilcoxon (Litchfield, J. T. Jr., and Wilcoxon F., J. Pharmacol. exp. Ther. 96,99--1949).

[3] = Bromsulphtalein (BSP) clearance in rats treated with the lower dose; type: in vivo; conditions: 30 min after 50 mg/kg BSP i.v., lower dose of drug
Description: The possibility to use BSP for the diagnosis of lesions in liver parenchyma is well known. Bromsulphtalein (BSP) clearance was made according to Carpi and Parenti (Carpi, C. and M. A. Parenti, Il Farmaco, Ed. Pr. vol. 17, page 45, 1962). Thirty minutes after the i.v. administration of 50 mg/kg BSP to control rats, the mean plasma level of the dyestuff is 80±12 mcg/ml.
% of rate showing BSP plasma levels greater than 80 mcg/ml
(control values) and 160 mcg/ml (two-fold control values)

[4] = Long-term toxicity in rats: mortality, pathology and general state; conditions: rat, in vivo
Description: Long-term toxicity (16 weeks) of IFT 1026 is tested in comparison to the parent compound (Bromhexine).

[5] = test system: Cough elicited by 15% citric acid spray; experiment: Antitussive activity in Guinea-pigs, citric acid spray cough; type: in vivo; conditions: Cavia porcellus, ip, 0.5 h, intraperitoneal, 30 min. after application, confidence limits P = 0.05
Description: as §4, §5, §6

[6] = test system: Pain induced by a physical stimulation; experiment: Hot-plate Test (Eddy and Leimbach): pain induced by a physical stimulation; type: in vivo, mice; conditions: mouse, 300 mg/kg oral, plate at 57° C.
Description: as §1, §3

[7] = Eight-day toxicity studies in mice, lethality (i.p.); type: in vivo; conditions: for Total number of deaths: 8 days
Text: Eight-day toxicity studies of IFT 1026 and Bromhexine in mice.

[8] = Long-term toxicity in rats: hematological parameters; type: in vivo, rat; conditions: daily oral Bromhexine 250 mg/kg, IFT 1026 350 mg/kg
Description: The hematological and biochemical values relating to the groups under treament with the above reported doses are shown in Tables Nos. 4 and 5. These values are virtually the same for both treated and control animals.
Effect of daily oral administration of Bromhexine 250 mg/kg
and IFT 1026 350 mg/kg on the hematological parameters in […]

[9] = Long-term toxicity in rats: biochemical parameters; type: in vivo, rat; conditions: daily oral 250 mg/kg Bromhexine, 350 mg/kg IFT 1026
[10] = test system: Pain induced by a chemical stimulus; experiment: Siegmund Test: pain induced by a chemical stimulus (acetic acid writhing); type: in vivo, mice; conditions: mouse, 300 mg/kg oral
Description: as §1, §2

[11] = Long-term toxicity in rats: organ weights at necropsy; type: in vivo; conditions: fresh weight, daily oral 250 mg/kg Bromhexine, 350 mg/kg IFT 1026
Description: Effect of daily oral administration of 250 mg/kg Bromhexine and 350 mg/kg
organ weights of rats, expressed as grams of fresh weight.

CN(Cc1cc(Br)cc(Br)c1N)C1CCCCC1 [Bromhexine, N-cyclohexyl-N-methyl-2-(2-amino-3,5-dibromo)benzylammonium chloride]
body weight, mean ± SE ([1]; females, 50 mg/kg daily oral, 0 days): 110 ± 5 g | body weight, mean ± SE ([1]; females, 50 mg/kg daily oral, 21 days): 174 ± 2 g | body weight, mean ± SE ([1]; females, 50 mg/kg daily oral, 45 days): 217 ± 4 g | body weight, mean ± SE ([1]; females, 50 mg/kg daily oral, 60 days): 229 ± 4 g | body weight, mean ± SE ([1]; females, 250 mg/kg daily oral, 0 days): 109 ± 6 g | body weight, mean ± SE ([1]; females, 250 mg/kg daily oral, 21 days): 158 ± 5 g | body weight, mean ± SE ([1]; females, 250 mg/kg daily oral, 45 days): 206 ± 4 g | body weight, mean ± SE ([1]; females, 250 mg/kg daily oral, 60 days): 230 ± 3 g | body weight, mean ± SE ([1]; females, 1000 mg/kg daily oral, 0 days): 117 ± 6 g | body weight, mean ± SE ([1]; females, 1000 mg/kg daily oral, 21 days): 147 ± 13 g | body weight, mean ± SE ([1]; females, 1000 mg/kg daily oral, 45 days): 157 ± 7 g | body weight, mean ± SE ([1]; females, 1000 mg/kg daily oral, 60 days): 188 ± 12 g | body weight, mean ± SE ([1]; males, 50 mg/kg daily oral, 0 days): 115 ± 9 g | body weight, mean ± SE ([1]; males, 50 mg/kg daily oral, 21 days): 225 ± 6 g | body weight, mean ± SE ([1]; males, 50 mg/kg daily oral, 45 days): 295 ± 7 g | body weight, mean ± SE ([1]; males, 50 mg/kg daily oral, 60 days): 365 ± 7 g | body weight, mean ± SE ([1]; males, 250 mg/kg daily oral, 0 days): 118 ± 12 g | body weight, mean ± SE ([1]; males, 250 mg/kg daily oral, 21 days): 218 ± 7 g | body weight, mean ± SE ([1]; males, 250 mg/kg daily oral, 45 days): 285 ± 8 g | body weight, mean ± SE ([1]; males, 250 mg/kg daily oral, 60 days): 355 ± 9 g | body weight, mean ± SE ([1]; males, 1000 mg/kg daily oral, 0 days): 110 ± 7 g | body weight, mean ± SE ([1]; males, 1000 mg/kg daily oral, 21 days): 180 ± 9 g | body weight, mean ± SE ([1]; males, 1000 mg/kg daily oral, 45 days): 250 ± 8 g | body weight, mean ± SE ([1]; males, 1000 mg/kg daily oral, 60 days): 290 ± 12 g | variations in the body weights versus control group ([1]; rats, exception: Bromhexine 1000 mg/kg/day): lower values than their control group | Responses to algogenic stimuli (noci-ceptive stimuli): not suppressed | ED50 [2]: 194 mg/kg | % showing BSP plasma levels >160 mcg/ml ([3]; X^2 = 0.43, N.S.): 12% | rats showing BSP plasma levels >160 mcg/ml, number/tested ([3]; X^2 = 0.43, N.S.): 2/17 | % showing BSP plasma levels >80 mcg/ml ([3]; X^2 = 0.7, N.S.): 41% | rats showing BSP plasma levels >80 mcg/ml, number/tested ([3]; X^2 = 0.7, N.S.): 7/17 | animals that died during the study [4]: Five | rats displaying liver steatosis [4]: Four | ED50 [5]: 143 mg/kg | Hot-plate Test (R max/Ro), mean ± SE [6]: 1.5 ± 0.18 | Number of deaths at day 3 ([7]; daily dose 300 mg/k): 1 | Number of deaths at day 6 ([7]; daily dose 300 mg/k): 1 | Total number of deaths ([7]; daily dose 300 mg/k): 2/10 | Number of deaths at day 3 ([7]; daily dose 600 mg/k): 1 | Number of deaths at day 5 ([7]; daily dose 600 mg/k): 1 | Number of deaths at day 6 ([7]; daily dose 600 mg/k): 1 | Number of deaths at day 7 ([7]; daily dose 600 mg/k): 1 | Number of deaths at day 8 ([7]; daily dose 600 mg/k): 1 | Total number of deaths ([7]; daily dose 600 mg/k): 5/10 | RBC, mean ± SE ([8]; females): 752 ± 37 10^6 /ml | WBC, mean ± SE ([8]; females): 132 ± 5 10^2 /ml | RBC, mean ± SE ([8]; males): 774 ± 63 10^6 /ml | WBC, mean ± SE ([8]; males): 168 ± 20 10^2 /ml | A/G ratio (Albumin/Globulin), mean ± SE ([9]; females): 2.6 ± 0.1 | BUN, mean ± SE ([9]; females): 44.9 ± 4 mg % | GLUCOSE, mean ± SE ([9]; females): 77.1 ± 9 mg % | SGOT, mean ± SE ([9]; females): 24.1 ± 0.5 Units/ml | SGPT, mean ± SE ([9]; females): 12.6 ± 0.3 Units/ml | TOTAL PROTEIN, mean ± SE ([9]; females): 25.8 ± 1.1 mg/mL | A/G ratio (Albumin/Globulin), mean ± SE ([9]; males): 2.4 ± 0.2 | BUN, mean ± SE ([9]; males): 34.5 ± 3 mg % | GLUCOSE, mean ± SE ([9]; males): 88.5 ± 6 mg % | SGOT, mean ± SE ([9]; males): 24.8 ± 0.5 Units/ml | SGPT, mean ± SE ([9]; males): 12.7 ± 0.15 Units/ml | TOTAL PROTEIN, mean ± SE ([9]; males): 27.1 ± 2.5 mg/mL | Siegmund Test, number of writhings for a 20 min. period, mean ± SE [10]: 32 ± 3 | organ weight, Adrenal glands ([11]; females): 4.7 ± 0.1 10^-2 grams | organ weight, Brain ([11]; females): 19.7 ± 0.5 10^-1 grams | organ weight, Heart ([11]; females): 8.3 ± 0.2 10^-1 grams | organ weight, Kidneys ([11]; females): 18.8 ± 0.9 10^-1 grams | organ weight, Liver ([11]; females): 10.5 ± 0.2 grams | organ weight, Lungs ([11]; females): 14.4 ± 0.9 10^-1 grams | organ weight, Spleen ([11]; females): 7.9 ± 0.2 10^-1 grams | organ weight, Adrenal glands ([11]; males): 3.8 ± 0.2 10^-2 grams | organ weight, Brain ([11]; males): 14 ± 1 10^-1 grams | organ weight, Heart ([11]; males): 8.8 ± 1.4 10^-1 grams | organ weight, Kidneys ([11]; males): 18.4 ± 0.5 10^-1 grams | organ weight, Liver ([11]; males): 10.6 ± 0.2 grams | organ weight, Lungs ([11]; males): 11.6 ± 1.7 10^-1 grams | organ weight, Spleen ([11]; males): 6 ± 0.6 10^-1 grams
